# Measured values published in a melting point compilation (Tetko et al.).
row,Structure (SMILES),melting point
1,Nc1ccc(CO)cc1,61 °C
2,O=C1C(c2ccc(C3=[N+]([O-])c4cc([N+](=O)[O-])ccc4C3=O)cc2)=[N+]([O-])c2cc([N+](=O)[O-])ccc21,294 °C
3,C#CC1(O)CC[C@@]2(C)C(CC[C@@H]3[C@@H]2CC[C@@]2(C)[C@H]3CC[C@]2(O)C#C)C1 (stereo partly specified),147 °C
4,Nc1cc(Cl)ccc1[N+](=O)[O-],128 °C
5,CCCCCCCCc1ccccc1,-36 °C
6,NC(=O)/C(=C\c1ccc(F)cc1)c1nc2ccccc2s1,178 °C
7,CC(C)[C@H](NC(=O)OCc1ccccc1)C(=O)O,60 °C
8,CC(C)CC1=CC(=Cc2ccc(-c3ccc([N+](=O)[O-])cc3)o2)C(=O)O1,162 to 163 °C
9,N[C@H](C(=O)O)c1ccc(F)cc1,300 °C
10,O=C(O)CCc1nc(-c2ccccc2)c(-c2ccccc2)o1,160 °C
11,O=C1CCC(=O)N1CCO,60 °C
12,COc1cccc2cc(C(=O)Cc3c(C)cc(C)cc3C)oc12,121 to 122 °C
13,CC1=C(C(=O)OC(C)C)C(c2ccco2)NC(=O)N1 (stereo unspecified),205 °C
14,O=C(OOC(=O)c1ccccc1)c1ccccc1,105 °C
15,COc1ccc(C2=CCC3(C)C(CCC4C3CCC3(C)C(OC(C)=O)CCC43)C2)cc1 (stereo unspecified),177 to 180 °C
16,Cc1nc(C(N)=S)cs1,201 to 203 °C
17,CCC(c1ccccc1)c1c(O)oc2ccccc2c1=O (stereo unspecified),180 °C
18,CCCCc1nc(C=O)c(Cl)[nH]1,98 to 100 °C
19,O=C(O)c1ccc(Oc2cccnc2)o1,150 to 153 °C
20,Cn1nc(-c2ccccc2)cc1CCl,70 to 72 °C
21,COC(=O)C1=C(C)c2ccccc2C1,66 °C
22,O=C(O)c1cn2nc(Cl)ccc2n1,248 to 249 °C
23,Fc1cccc(Cl)c1C(Cl)(Cl)Cl,38 to 43 °C
24,O=C(CI)c1ccccc1,34.4 °C
25,CC(C)OC(=O)C(O)(c1ccc(Cl)cc1)c1ccc(Cl)cc1,73 °C
26,COc1ccc(-c2ccccc2)cc1NNC(=O)OC(C)C,122 °C

row,Structure (SMILES),melting point
1,CC(=Nc1c(O)ccc2ccccc12)c1c(O)c2ccccc2n(-c2ccccc2)c1=O,219 °C
2,N#CC1=C(N)OC2=C(CCCC2)C1c1ccccc1 (stereo unspecified),261 °C
3,COc1ccc(C(=CC(=O)N2CCOCC2)c2ccc(Cl)cc2)cc1OC,148 °C
4,ClCCOCOCCCl,-32 °C
5,CC(=O)c1ccc(C2CC2(Cl)Cl)cc1 (stereo unspecified),35 °C
6,CCCCCCCCCCCCCCCC(C)CC (stereo unspecified),1 °C
7,O=C(O)/C=C/c1cccc(F)c1,167 °C
8,CCOC(=O)c1c(-c2cccs2)csc1N,85 to 87 °C
9,CN(C(=O)CCl)c1c2c(nn1C)CCCC2,84 to 86 °C
10,CC1(C(=O)O)CCC(C(Br)C(Br)c2ccccc2)C1(C)C (stereo unspecified),161 °C
11,O=C1OCC(O)C1O (stereo unspecified),99 to 102 °C
12,OC1OCC(OCc2ccccc2)C(OCc2ccccc2)C1OCc1ccccc1 (stereo unspecified),78 °C
13,Cc1cc(C)c(C2(C)CC(C(=O)c3cc4cc(Br)ccc4o3)C2)c(C)c1 (stereo unspecified),208 to 209 °C
14,CS(=O)(=O)c1ccc(C(C=O)C=O)c([N+](=O)[O-])c1,213 to 219 °C
15,Cc1c(Cl)cccc1Nc1ccccc1C(=O)O,207 °C
16,COc1ccc(C#N)c2ccccc12,102 °C
17,CON=C(C)c1cccc(Oc2nc(OC)cc(OC)n2)c1C(=O)OC,107 °C
18,O=[N+]([O-])c1ccc(C=Cc2ccc([N+](=O)[O-])cc2)cc1,183 °C
19,CC(=O)c1ccc(C(C)=O)c([N+](=O)[O-])c1,46 °C
20,CCCCC(CC)COC(=O)CCCCCCCCC(=O)OCC(CC)CCCC (stereo unspecified),-48 °C
21,CC(=O)Nc1cc(NC(C)=O)c([N+](=O)[O-])cc1[N+](=O)[O-],247 to 248 °C
22,O=C(Cl)c1ccccc1,-1 °C
23,CCO[Si](Cl)(Cl)OCC,-130 °C
24,Cc1nc(/C(C#N)=C\c2ccco2)sc1/N=N/c1ccccc1[N+](=O)[O-],212 to 213 °C
25,O=C(O)C1CCCCC1C(=O)OCCO (stereo unspecified),90 °C
26,NS(=O)(=O)c1ccc(Oc2ccccc2)cc1,131 °C

row,Structure (SMILES),melting point
1,OC1Cc2ccccc2C1,70 °C
2,C=CC(C)(O)CCC=C(C)C (stereo unspecified),< 25 °C
3,c1ccc(-c2c[nH]cn2)cc1,144 °C
4,CN1C2CC3CC1C(O3)C2O (stereo unspecified),108 °C
5,CCCCCCNC(=O)COC(=O)c1ccccc1,130 °C
6,CCOc1ccc2ccc(=O)oc2c1,90 °C
7,O=C1NC(=O)[C@@H]2CC=CC[C@H]12,131 to 138 °C
8,Cc1ccc(Cl)c(O)c1,46 °C
9,O=C1CCC2(c3ccccc3)OCC(c3ccccc3)N12 (stereo unspecified),78 °C
10,O=[N+]([O-])c1ccc2ccccc2c1,79 °C
11,O=C(O)CSc1ncccn1,200 to 203 °C
12,CC(=O)C1CCC2(C)C(CCC3C4CCC(O)C4(C)CCC32)C1 (stereo unspecified),145 °C
13,COC(=O)C1=C(C)NC(=O)NC1c1ccc(Cl)cc1 (stereo unspecified),172 °C
14,Ic1ccccc1CN1CCOCC1,46 to 48 °C
15,CCCCCCCC(=O)NO,78.8 °C
16,CCCC(c1ccccc1)c1ccccc1,27 °C
17,COc1ccc(-c2ccccc2)cc1NC(=O)C(C(F)(F)F)C(F)(F)F,211 °C
18,NC(=O)OCC(O)c1ccccc1 (stereo unspecified),112 °C
19,Nc1ccc(N=O)c(N)n1,260 to 266 °C
20,Cc1nnc(-c2ccccn2)nc1C,85 °C
21,Cc1noc(-c2cccc(Br)c2)n1,95 to 96 °C
22,CCOc1ncnc2c1cnn2-c1ccccc1,94 to 96 °C
23,O=C(O)[C@@H]1CCCC[C@H]1C(=O)c1ccc(Cl)cc1 (relative stereo),157 to 161 °C
24,c1ccc(-c2oc(-c3ccccc3)c(-c3ccccc3)c2-c2ccccc2)cc1,175 °C
25,COc1cccc(OC)c1/C=N/n1c(S)nnc1C(F)(F)F,178 °C
26,FC(F)(F)C(I)(C(F)(F)F)C(F)(F)F,60 °C

row,Structure (SMILES),melting point
1,O=C(CCCN1CCC2(CC1)C(=O)NCN2c1ccccc1)c1ccc(F)cc1,190 °C
2,[O-][N+](=Nc1ccccc1)c1ccc(N=Nc2ccc([N+]([O-])=Nc3ccccc3)cc2)cc1,138 to 139 °C
3,Nc1cc(C(=O)O)ccc1C(=O)O,324 °C
4,COc1c(OC)c(OC(C)=O)c2cc(Cl)ccc2c1OC(C)=O,91.5 °C
5,NC(=S)Nc1ccc(C(=O)O)cc1,255 °C
6,CC(=O)NNC(N)=S,165 to 170 °C
7,O=[N+]([O-])c1cccc(-c2nnc3n2CN(c2cccc([N+](=O)[O-])c2)CS3)c1,240 °C
8,CC1(C)CC(=O)C(=NNc2ccc(Br)cc2)C(=O)C1,204 °C
9,CSC(SC)=C(C#N)C(=O)c1cccc(C(F)(F)F)c1,60 °C
10,Oc1ccccc1C1Nn2c(COc3ccccc3)nnc2S1 (stereo unspecified),217 °C
11,O=Cc1cc(Cl)cc(C=O)c1O,119 to 125 °C
12,O/N=C(/CC(NO)c1ccccc1)c1ccccc1 (stereo unspecified),141 °C
13,O=[N+]([O-])c1ccc(-c2ccc(/N=N/c3ccccc3)cc2)cc1,178 to 179 °C
14,COc1ccc(C=CC(=O)Nc2ccccc2C(=O)O)cc1OC,212 °C
15,O=C(O)COc1ccccc1[N+](=O)[O-],158 °C
16,CC(=O)NC1CC=CCC(NC(C)=O)CC=CC1 (stereo unspecified),267 to 277 °C
17,CCOC(=O)c1sc(-c2cccc(N)c2)nc1C,84 °C
18,COC(=O)Cc1csc2ccc(Cl)cc12,55 to 56 °C
19,O=C(c1ccccc1)N1CCc2cc3c(cc21)CCN3C(=O)c1ccccc1,293 to 294 °C
20,CC12CCC(CC/C1=N\Nc1ccc([N+](=O)[O-])cc1[N+](=O)[O-])C2(C)C (stereo unspecified),232 to 233 °C
21,O=C(O)c1cc2cc(OCc3ccccc3)ccc2[nH]1,197 °C
22,CCCCCCCCCCCCCCCN,37.3 °C
23,O=C(c1c(F)c(F)c(F)c(F)c1F)n1ccnc1,56 °C
24,O=C(O)c1c(O)ccc(F)c1F,183 °C
25,CSc1nc(N)nc(-c2cccnc2)n1,243 to 254 °C
26,CCNc1nc(NC(C)C(C)C)nc(SC)n1 (stereo unspecified),65 °C

row,Structure (SMILES),melting point
1,Cc1ccc(S(=O)(=O)OC(C(F)(F)F)C(F)(F)F)cc1,39 to 40 °C
2,CNCc1ccc(N2CCN(C(=O)OC(C)(C)C)CC2)cc1,60 to 62 °C
3,Cc1cc(C(=O)O)c(C)[nH]1,200 °C
4,CC1(C)C(=O)OOC1=O,44 to 45 °C
5,Nc1c(Cl)cc(C(F)(F)F)cc1Cl,36 °C
6,O=C=Nc1cccc(-c2ncccn2)c1,45 to 47 °C
7,CC(=O)C(=NNc1cccc([N+](=O)[O-])c1)C(C)=O,184 °C
8,CCOC(=O)c1cccc(-c2nccs2)c1,50 to 52 °C
9,Nc1nn2c(C(F)(F)F)cc(=O)[nH]c2c1/N=N/c1cccc(C(F)(F)F)c1,291 °C
10,CCOC(=O)c1c[nH]nc1C,136 to 138 °C
11,CSc1nc2ccc([N+](=O)[O-])cc2s1,134 to 136 °C
12,COc1ccc(N)c(C)c1,29.5 °C
13,O=C(O)C=CC(=O)O,295 to 300 °C
14,CSc1nc(NS(=O)(=O)c2ccc(C)cc2)c(C#N)c(-c2ccc(Cl)cc2)c1Br,218 °C
15,CC1=C(C(=O)OCC(C)C)C(c2ccc3c(c2)OCO3)NC(=O)N1 (stereo unspecified),178 °C
16,O=C(O)c1ccc(OC2CCOCC2)cc1,185 to 186 °C
17,NCCCCCC(=O)O,211 °C
18,CCCCCCCCCCCCCCCCS(=O)(=O)c1ccc(N)cc1,115 to 117 °C
19,CC(=O)c1cccc2ccccc12,34 °C
20,O=C1c2ccccc2C(=O)c2c(O)cccc21,194 °C
21,O=C(NCCO)C1CCCNC1 (stereo unspecified),119 °C
22,COc1ccccc1N/N=C1\C(=O)N(CN2CCCCC2)N=C1C,148 °C
